According to US8188085B2, “Antifungal agents” (Merck Sharp & Dohme Corp., priority 2008, dated 2012):

target: glucan synthase (GS) prepared from Candida albicans MY1055 (Candida albicans, UniProt O13428); assay: Glucan synthase inhibition (polymerization assay, 96-well); format: biochemical; conditions: GS from C. albicans MY1055; 60 min incubation at 22° C.; read-out: Candida Albicans GS IC50 (converted)
Procedure: The in vitro evaluation of glucan synthase inhibitory activity of compounds was measured in a polymerization assay in 96-well format. Each well contained 100 μL of ^3H-UDPG at 0.5 mM (6000 to 8000 dpm/nmol), 50 mM HEPES pH 7.5 (Sigma), 10% w/v glycerol (Sigma), 1.5 mg/mL bovine serum albumin (Sigma A 9647. Lot 44H0190), 25 mM KF (Fisher), 1 mM EDTA (Gibco ULTRAPURE), 25 μM GTP-γ-S, enzyme sufficient to give 3 to 6 nmoles incorporation during the 60 min incubation at 22° C., and test compound added from wells in 3-fold serial dilutions in 100% DMSO (1 μL/well). The reaction was stopped by the addition of 100 μL of 20% trichloroacetic acid. Plates were chilled for a minimum of 10 min, and precipitated glucan collected by filtration on GF/C plates (Packard UNIFILTER®-96), washed with 5 cycles of water (about 1 mL/well each cycle) using a Packard FILTERMATE HARVESTER. 40 μL/well scintillation fluid (Packard ULTIMA GOLD TM-XR) was added and the sealed plates counted in a WALLAC BETA counter in top-counting mode at an efficiency of approximately 40%.
Stock solutions were stored at 10 mg/mL in DMSO at −20° C. For each new enzyme preparation, the initial titration performed started at 1 mg/mL, which was prepared by making a 10-fold dilution in DMSO (5 μL to 50 μL). 40 μL of this stock was placed in column 12 of a round-bottomed 96-well microtiter plate. 40 μL DMSO was added to columns 1 to 11 in the same row and ten 3-fold serial dilutions performed, by transferring 20 μL from column 12 to column 11 etc., with 4 mixings before each transfer. No test compound was transferred to from column 2 to column 1. Duplicate aliquots of 1 μL of all 12 dilutions were then transferred to the side walls of a 96-well Bioblock 1.1 mL plate (Fisher brand) to create two rows.
Graphs of the primary data were created in PRISM software (the average of two determinations) using PRISM's curve fitting program (sigmoidal dose response non-linear regression). The amount of compound required to inhibit glucan synthase activity by 50% in this assay (IC50−ng/mL) was calculated.
Routine analysis was performed with glucan synthase (GS) prepared from Candida albicans MY1055 by the following procedure: MY1055 was grown in 10 liters YPD medium (10 g yeast extract, 20 g tryptone, 20 g glucose per liter) with vigorous shaking at 30° C., to early stationary phase. Cells were harvested by centrifugation, the pellet was washed and frozen at −70° C. until breakage. Thawed pellets were shaken with an equal volume of breakage buffer (50 mM HEPES pH 7.4, 10% glycerol, 1 mM EDTA, 1 mM PMSF, 1 mM DTT) and 4 times their weight of 0.5 mm acid washed glass beads for 2 hours at 4° C. Extent of breakage was assessed visually at 40× magnification. After low speed centrifugation to remove cell debris, the supernatant was centrifuged at 100,000×g for 60 min. to separate membranes plus ribosomes from cytoplasmic components. Membranes were further washed two additional times with breakage buffer using the same centrifugation conditions and finally suspended in breakage buffer at 25 to 30 mg/mL protein (Biorad) for storage at −70° C. Extraction of GS activity from membranes was performed at a protein concentration of 5 mg/mL in extraction buffer (50 mM NaPO4 pH 7.5, 0.1 M KCl, 0.1M Na citrate, 20% glycerol, 5 μM GTP-γ-S, 1 mM DTT, 1 mM PMSF, 3 μg/mL pepstatin) plus 0.25% W1 by gentle mixing at 4° C. for 60 min, followed by centrifugation at 100,000×g for 60 min. After centrifugation, clear supernatant was removed from a pellet consisting of a hard layer usually with small amounts of gelatinous unextracted membranes above it.
Trapping was initiated immediately by 5-fold dilution in trapping buffer (50 mM HEPES pH 7.5, 10 mM KF, 1 mM EDTA, 2 mg/mL BSA) plus 2.5 mM UDPG and 10 μM GTP-γ-S. After incubation at 25° C. for 60 to 90 minutes, glucan was harvested by low speed centrifugation (3,000×g, 10 min). […]

Chain of glucan synthase (GS) prepared from Candida albicans MY1055 (O13428 1-1897): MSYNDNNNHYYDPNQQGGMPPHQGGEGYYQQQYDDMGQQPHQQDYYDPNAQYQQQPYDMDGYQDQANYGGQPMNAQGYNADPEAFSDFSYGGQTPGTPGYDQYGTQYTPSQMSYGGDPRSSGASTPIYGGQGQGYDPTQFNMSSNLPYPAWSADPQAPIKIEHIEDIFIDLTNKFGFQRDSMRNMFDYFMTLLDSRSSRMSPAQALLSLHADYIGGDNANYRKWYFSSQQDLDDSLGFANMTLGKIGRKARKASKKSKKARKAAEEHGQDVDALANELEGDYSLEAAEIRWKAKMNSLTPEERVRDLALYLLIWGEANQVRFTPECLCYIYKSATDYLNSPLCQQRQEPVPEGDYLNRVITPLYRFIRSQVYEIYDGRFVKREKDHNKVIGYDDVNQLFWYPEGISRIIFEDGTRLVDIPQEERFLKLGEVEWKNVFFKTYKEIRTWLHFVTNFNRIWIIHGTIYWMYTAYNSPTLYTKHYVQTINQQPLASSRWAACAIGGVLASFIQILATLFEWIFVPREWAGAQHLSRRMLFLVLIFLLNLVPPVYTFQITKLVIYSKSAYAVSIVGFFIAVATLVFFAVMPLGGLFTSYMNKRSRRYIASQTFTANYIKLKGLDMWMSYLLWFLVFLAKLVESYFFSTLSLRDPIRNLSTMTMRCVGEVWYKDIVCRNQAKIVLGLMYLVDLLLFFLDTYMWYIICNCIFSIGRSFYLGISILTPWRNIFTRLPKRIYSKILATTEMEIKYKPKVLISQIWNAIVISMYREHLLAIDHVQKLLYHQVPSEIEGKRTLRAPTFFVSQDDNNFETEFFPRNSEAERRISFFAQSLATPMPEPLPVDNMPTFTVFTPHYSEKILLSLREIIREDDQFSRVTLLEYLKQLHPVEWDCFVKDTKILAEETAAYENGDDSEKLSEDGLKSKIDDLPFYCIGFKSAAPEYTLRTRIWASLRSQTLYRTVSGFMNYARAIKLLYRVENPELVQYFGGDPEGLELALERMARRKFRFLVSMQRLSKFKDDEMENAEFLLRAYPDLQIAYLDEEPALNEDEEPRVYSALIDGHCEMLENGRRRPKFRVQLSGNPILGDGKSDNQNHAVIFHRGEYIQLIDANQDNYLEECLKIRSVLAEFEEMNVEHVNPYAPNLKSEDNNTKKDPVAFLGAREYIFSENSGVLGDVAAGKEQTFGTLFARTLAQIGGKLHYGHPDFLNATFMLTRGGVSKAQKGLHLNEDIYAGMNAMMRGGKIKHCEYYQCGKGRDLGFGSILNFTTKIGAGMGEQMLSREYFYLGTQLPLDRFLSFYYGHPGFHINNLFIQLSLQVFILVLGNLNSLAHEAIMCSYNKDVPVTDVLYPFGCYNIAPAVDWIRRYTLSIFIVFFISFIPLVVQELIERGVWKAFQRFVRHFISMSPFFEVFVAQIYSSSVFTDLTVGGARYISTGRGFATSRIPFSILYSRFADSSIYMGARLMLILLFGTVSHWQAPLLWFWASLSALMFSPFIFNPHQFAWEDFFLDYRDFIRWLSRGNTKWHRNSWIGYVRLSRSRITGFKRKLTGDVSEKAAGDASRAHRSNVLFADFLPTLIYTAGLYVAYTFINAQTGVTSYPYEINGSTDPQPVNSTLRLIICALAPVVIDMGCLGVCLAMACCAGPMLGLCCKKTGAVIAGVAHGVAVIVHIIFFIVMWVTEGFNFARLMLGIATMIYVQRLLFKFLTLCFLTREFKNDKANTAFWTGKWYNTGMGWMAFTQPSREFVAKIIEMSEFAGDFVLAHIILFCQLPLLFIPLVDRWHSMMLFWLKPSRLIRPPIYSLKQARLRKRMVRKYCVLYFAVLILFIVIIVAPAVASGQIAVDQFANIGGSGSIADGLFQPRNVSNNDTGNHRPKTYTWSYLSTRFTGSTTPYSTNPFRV

SMILES	IC50
CC(C)[C@@H](C)[C@@]1(C)CC[C@]2(C)[C@H]3CC[C@@H]4[C@@]5(COC[C@@]4(C)[C@@H](OC[C@](C)(N)C(C)(C)C)[C@H](n4ncnc4-c4ccnc(N)c4)C5)C3=CC[C@@]2(C)[C@@H]1C(=O)O [Example 214, (1S,4aR,6aS,7R,8R,10aR,10bR,12aR,14R,15R)-14-[5-(2-amino-4-pyridinyl)-1H-1,2,4-triazol-1-yl]-15-[[(2R)-2-amino-2,3,3-trimethylbutyl]oxy]-8-[(1R)-1,2-dimethylpropyl]-1,6,6a,7,8,9,10,10a,10b,11,12,12a-dodecahydro-1,6a,8,10a-tetramethyl-4H-1,4a-propano-2H-phenanthro[1,2-c]pyran-7-carboxylic acid]	1.34 nM
CN[C@](C)(CO[C@H]1[C@H](n2cncn2)C[C@@]23COC[C@]1(C)[C@@H]2CC[C@H]1C3=CC[C@@]2(C)[C@H](C(=O)O)[C@@](C)([C@H](C)C(C)C)CC[C@]12C)C(C)C [Example 3, (1S,4aR,6aS,7R,8R,10aR,10bR,12aR,14R,15R)-15-[[(2S)-2,3-dimethyl-2-(methylamino)butyl]oxy]-8-[(1R)-1,2-dimethylpropyl]-14-(1H-1,2,4-triazol-1-yl)-1,6,6a,7,8,9,10,10a,10b,11,12,12a-dodecahydro-1,6a,8,10a-tetramethyl-4H-1,4a-propano-2H-phenanthro[1,2-c]pyran-7-carboxylic acid]	26 nM
CC(C)[C@@H](C)[C@@]1(C)CC[C@]2(C)[C@H]3CC[C@@H]4[C@@]5(COC[C@@]4(C)[C@@H](OC[C@](C)(N)C(C)(C)C)[C@H](n4ncnc4C4CCOCC4)C5)C3=CC[C@@]2(C)[C@@H]1C(=O)O [Example 285, (1S,4aR,6aS,7R,8R,10aR,10bR,12aR,14R,15R)-15-[[(2R)-2-amino-2,3,3-trimethylbutyl]oxy]-8-[(1R)-1,2-dimethylpropyl]-14-[5-(tetrahydro-2H-pyran-4-yl)-1H-1,2,4-triazol-1-yl]-1,6,6a,7,8,9,10,10a,10b,11,12,12a-dodecahydro-1,6a,8,10a-tetramethyl-4H-1,4a-propano-2H-phenanthro[1,2-c]pyran-7-carboxylic acid]	4.07 nM
CNC(=O)c1ncnn1[C@@H]1C[C@@]23COC[C@](C)([C@@H]2CC[C@H]2C3=CC[C@@]3(C)[C@H](C(=O)O)[C@@](C)([C@H](C)C(C)C)CC[C@]23C)[C@H]1OCC1(N)CCOCC1 [Example 112, (1S,4aR,6aS,7R,8R,10aR,10bR,12aR,14R,15R)-15-[(4-aminotetrahydro-2H-pyran-4-yl)methoxy]-8-[(1R)-1,2-dimethylpropyl]-14-[5-[(methylamino)carbonyl]-1H-1,2,4-triazol-1-yl]-1,6,6a,7,8,9,10,10a,10b,11,12,12a-dodecahydro-1,6a,8,10a-tetramethyl-4H-1,4a-propano-2H-phenanthro[1,2-c]pyran-7-carboxylic acid]	9.86 nM
CC(C)[C@@H](C)[C@@]1(C)CC[C@]2(C)[C@H]3CC[C@@H]4[C@@]5(COC[C@@]4(C)[C@@H](OC[C@](C)(N)C(C)C)[C@H](n4ncnc4C(=O)N4CCOCC4)C5)C3=CC[C@@]2(C)[C@@H]1C(=O)O [Example 86, (1S,4aR,6aS,7R,8R,10aR,10bR,12aR,14R,15R)-15-[[(2R)-2-amino-2,3-dimethylbutyl]oxy]-8-[(1R)-1,2-dimethylpropyl]-14-[5-(4-morpholinylcarbonyl)-1H-1,2,4-triazol-1-yl]-1,6,6a,7,8,9,10,10a,10b,11,12,12a-dodecahydro-1,6a,8,10a-tetramethyl-4H-1,4a-propano-2H-phenanthro[1,2-c]pyran-7-carboxylic acid]	70.5 nM
C=C(C)c1ncnn1[C@@H]1C[C@@]23COC[C@](C)([C@@H]2CC[C@H]2C3=CC[C@@]3(C)[C@H](C(=O)O)[C@@](C)([C@H](C)C(C)C)CC[C@]23C)[C@H]1OC[C@](C)(N)C(C)C [Example 168, (1S,4aR,6aS,7R,8R,10aR,10bR,12aR,14R,15R)-15-[[(2R)-2-amino-2,3-dimethylbutyl]oxy]-8-[(1R)-1,2-dimethylpropyl]-14-[5-(1-methylethenyl)-1H-1,2,4-triazol-1-yl]-1,6,6a,7,8,9,10,10a,10b,11,12,12a-dodecahydro-1,6a,8,10a-tetramethyl-4H-1,4a-propano-2H-phenanthro[1,2-c]pyran-7-carboxylic acid]	4.42 nM
CC(C)[C@@H](C)[C@@]1(C)CC[C@]2(C)[C@H]3CC[C@@H]4[C@@]5(COC[C@@]4(C)[C@@H](OC[C@](C)(N)C(C)(C)C)[C@H](n4ncnc4S(N)(=O)=O)C5)C3=CC[C@@]2(C)[C@@H]1C(=O)O [Example 123C, (1S,4aR,6aS,7R,8R,10aR,10bR,12aR,14R,15R)-14-[5-(aminosulfonyl)-1H-1,2,4-triazol-1-yl]-15-[[(2R)-2-amino-2,3,3-trimethylbutyl]oxy]-8-[(1R)-1,2-dimethylpropyl]-1,6,6a,7,8,9,10,10a,10b,11,12,12a-dodecahydro-1,6a,8,10a-tetramethyl-4H-1,4a-propano-2H-phenanthro[1,2-c]pyran-7-carboxylic acid]	5.46 nM
CNC1(CO[C@H]2[C@H](n3ncnc3C(N)=O)C[C@@]34COC[C@]2(C)[C@@H]3CC[C@H]2C4=CC[C@@]3(C)[C@H](C(=O)O)[C@@](C)([C@H](C)C(C)C)CC[C@]23C)CCCCC1 [Example 107, (1S,4aR,6aS,7R,8R,10aR,10bR,12aR,14R,15R)-14-[5-(aminocarbonyl)-1H-1,2,4-triazol-1-yl]-8-[(1R)-1,2-dimethylpropyl]-15-[[1-(methylamino)cyclohexyl]methoxy]-1,6,6a,7,8,9,10,10a,10b,11,12,12a-dodecahydro-1,6a,8,10a-tetramethyl-4H-1,4a-propano-2H-phenanthro[1,2-c]pyran-7-carboxylic acid]	19.8 nM
CC(C)[C@@H](C)[C@@]1(C)CC[C@]2(C)[C@H]3CC[C@@H]4[C@@]5(COC[C@@]4(C)[C@@H](OC[C@](C)(N)C(C)(C)C)[C@H](n4ncnc4C(N)=O)C5)C3=CC[C@@]2(C)[C@@H]1C(=O)O [Example 44, (1S,4aR,6aS,7R,8R,10aR,10bR,12aR,14R,15R)-14-[5-(aminocarbonyl)-1H-1,2,4-triazol-1-yl]-15-[[(2R)-2-amino-2,3,3-trimethylbutyl]oxy]-8-[(1R)-1,2-dimethylpropyl]-1,6,6a,7,8,9,10,10a,10b,11,12,12a-dodecahydro-1,6a,8,10a-tetramethyl-4H-1,4a-propano-2H-phenanthro[1,2-c]pyran-7-carboxylic acid]	4.31 nM
CC(C)[C@@H](C)[C@@]1(C)CC[C@]2(C)[C@H]3CC[C@@H]4[C@@]5(COC[C@@]4(C)[C@@H](OC[C@](C)(N)C(C)C)[C@H](n4cccn4)C5)C3=CC[C@@]2(C)[C@@H]1C(=O)O [Example 291, (1S,4aR,6aS,7R,8R,10aR,10bR,12aR,14R,15R)-15-[[(2R)-2-amino-2,3-dimethylbutyl]oxy]-8-[(1R)-1,2-dimethylpropyl]-14-(1H-pyrazol-1-yl)-1,6,6a,7,8,9,10,10a,10b,11,12,12a-dodecahydro-1,6a,8,10a-tetramethyl-4H-1,4a-propano-2H-phenanthro[1,2-c]pyran-7-carboxylic acid]	54.9 nM
